Assay results published in patent US12599584B2, “Indoline derivatives, compositions comprising them and uses thereof” (Yissum Research Development Company of The Hebrew …, priority 2016, dated 2026).
Structures can show the parent of a compound that is named as a salt.

Experiments:
[1] = test system: NO release from LPS-activated RAW cells; test: Release of NO from LPS-activated RAW 264.7 macrophages (Griess); type: cell-based, mouse; details: for Lowest concentration that inhibited NO release by 25%: LPS-activated RAW cells; for Greater concentration needed to cause the same effect (NO release): substituent in position 5, compared with AN1284
Procedure: (§1) Anti-inflammatory activity was measured in RAW 264.7 macrophage cells. The cells were seeded at density of 5×10^4 per well in 48-well culture plates and grown overnight in DMEM as described above. The compounds were added to give final concentrations ranging from 1×10^−12-1×10^−6 M of the respective salts per well. The cells were incubated for 2 h at 37° C. prior to stimulation with lipopolysaccharide (LPS, 2.5 μg/mL) from Escherichia coli (Sigma-Aldrich). Supernatants were harvested after 8 h for detection of TNF-α and after 24 h for nitric oxide (NO). NO production was detected by a colourimetric method using Griess reagent (0.2% naphthylenediamine dihydrochloride, and 2% sulfanilamide in 5% phosphoric acid), which measures the concentration of nitrite, a stable metabolite produced from NO. TNF-α protein was detected by means of the sandwich ELISA method using an ELISA kit (Biolegend, San Diego, CA, USA) according to the manufacturer's instructions.

[2] = test system: TNF-α release from LPS-activated RAW cells; test: Release of TNF-α from LPS-activated RAW 264.7 macrophages (ELISA); type: cell-based, mouse; details: for Lowest concentration that inhibited TNF-α release by 25%: LPS-activated RAW cells; for Greater concentration needed to cause the same effect (TNF-α release): substituent in position 5, compared with AN1284
Procedure: as §1

LPS-injected mice = test: Pro-inflammatory cytokine proteins in tissues of mice injected with LPS; type: in vivo, mouse; details: sc, 2-3 doses, 15 min before LPS 10 mg/kg ip; 4 h after LPS
Procedure: Male Balb/c OlaHsd mice (aged 7-8 weeks) were injected subcutaneously (sc) with saline, or with AN1279, AN1283, AN1284, AN1287 and AN1298 at doses that contain approximately the equivalent amount of the base. LPS (10 mg/kg) was given by intraperitoneal injection 15 min later. The mice were sacrificed 4 h later, which was previously shown to be the optimal time for elevation of cytokines in the spleen and brain. The spleen, brain and liver were rapidly removed and frozen in liquid nitrogen and stored at −80° C. until use. A piece of the cortex was taken for gene analysis of cytokines. Blood was collected into heparinized tubes and plasma separated by centrifugation. For measurement of cytokine protein, tissues were weighed and diluted in PBS containing 0.8% NaCl, 0.144% NaHPO4, 0.024% KH2PO4 and protease inhibitor cocktail (Sigma) and homogenised in an Ultra-TURRAX® homogeniser at a speed of 24,000 rpm and centrifuged at 14000 g for 15 min at 4° C. Cytokines were detected by means of Elisa kits (Biolegend) and protein concentration was determined by a bicinchoninic acid protein assay kit (Thermo Scientific, IL, USA).

[3] = test system: IL-6 in human macrophages; test: IL-6 in human macrophages after elevation by LPS (ELISA); type: cell-based; details: 24 h after LPS; 1 × 10^−9 M
Procedure: (§2) Blood (20 ml was collected from healthy human subjects on the day of the experiment in anti-coagulant tubes and diluted in PBS 1:1. Ficol (12 mL) was added into the bottom of the tube, centrifuged slowly for 30 min at 1400 g and peripheral blood mononuclear cells (PBMCs) were separated. Monocytes were isolated by addition of 15 ml of MACS buffer. After centrifugation at 1400 g for 10 min at 4° C., the supernatant fluid was removed, monocytes were isolated by means of a MACS-Monocyte isolation kit (cat: 130-091-153) and incubated at 4-8° C. for 10 min Monocytes (500,000/well) were seeded in 12 multi well plate and cultured for 7 days in RPMI+L-Glutamin+FBS (10%) and PenStrep and h-MCSF (20 ng/mL) to convert them into macrophages. Compounds (AN1284, AN1297, AN1298, 1×10^−10 or 1×10^−9 M) were added 2 h before LPS (100 μg/mL Sigma Ltd. phenol extracted from Escherichia coli 055: B5) and incubated at 37° C., 5% CO2. TNF-α, IL-1β and IL-6 protein were detected by means of the sandwich ELISA method using an ELISA kit for human cytokines (Biolegend, San Diego, CA, USA) according to the manufacturer's instructions.

[4] = test system: TNF-α in human macrophages; test: TNF-α in human macrophages after elevation by LPS (ELISA); type: cell-based
Procedure: as §2, with “Compounds (AN1284, AN1297, AN1298, 1×10^−10 or 1×10^−9 M) were added 2 h before LPS (100 μg/mL Sigma Ltd. phenol extracted from Escherichia coli 055: B5) and incubated at 37° C., 5% CO2.” left out

| SMILES | Lowest concentration that inhibited NO release by 25% [1] | Lowest concentration that inhibited TNF-α release by 25% [2] | IL-6 protein in the brain (LPS-injected mice) | IL-6 protein in the liver (LPS-injected mice) | Greater concentration needed to cause the same effect (NO release) [1] | Greater concentration needed to cause the same effect (TNF-α release) [2] | other results |
| --- | --- | --- | --- | --- | --- | --- | --- |
| COC(=O)CCC1CNc2ccccc21.Cl (centres unmarked) [AN647] | 100 pM | 100 pM |  |  |  |  |  |
| Cc1ccc(S(=O)(=O)O)cc1.NCCCC1CNc2ccccc21 (centres unmarked) [AN1282, 3-(Indolin-3-yl)propan-1-amine di-p-Toluenesulfonate] | 100 pM | 100 pM |  |  |  |  |  |
| COC(=O)CCN1CCc2ccccc21.Cl [AN1283, Methyl 3-(Indolin-1-yl)propanoate Hydrochloride] |  |  | reduction | reduction |  |  |  |
| COC(=O)CCN1CCc2cc(Cl)ccc21.Cc1ccc(S(=O)(=O)O)cc1 [AN1285, Methyl 3-(5-Chloroindolin-1-yl)propanoate p-Toluenesulfonate] |  |  |  |  | 100 fold | 100 fold |  |
| COc1ccc2c(c1)CCN2CCCNC(C)C [AN1298, N-Isopropyl-3-(5-methoxyindolin-1-yl)propan-1-amine di-Hydrochloride] |  |  | reduction | reduction | does not affect the activity | does not affect the activity | Reduction (%) ± STD compared to LPS alone, IL-6 [3]: 54.6 ± 18.8%; Reduction (%) ± STD compared to LPS alone, TNF-α ([4]; 6 h after LPS, 1 × 10^−9 M): 50.4 ± 13.5%; Reduction (%) ± STD compared to LPS alone, TNF-α ([4]; 12 h after LPS, 1 × 10^−10 M): 28.0 ± 7.9%; Reduction (%) ± STD compared to LPS alone, TNF-α ([4]; 12 h after LPS, 1 × 10^−11 M): 14.6 ± 4.2%; Reduction (%) ± STD compared to LPS alone, TNF-α ([4]; 24 h after LPS, 1 × 10^−9 M): 72.2 ± 9.7% |
